Source: article PMC2818674 (Bioorganic & medicinal chemistry, 2009)

Assays:
[1] = system: Akt; test: Selectivity profile: Akt; assay type: biochemical; details: for IC50: read-out: Akt, IC50, selectivity profile
[2] = Plasma stability assay; assay type: in vitro ADME, rat; details: for plasma stability: after 1 h of incubation in rat plasma; for remaining at 1 h, 1 μM: rat, fresh rat plasma
[3] = PAMPA permeability assay; assay type: in vitro ADME; details: pH 7.4

IC50 [1]	plasma stability [2]	remaining at 1 h, 1 μM [2]	Cell permeability, PAMPA % Flux [3]	activity against the kinase Akt [1]	SMILES
> 100 µM	degraded rapidly	0%	5.5%	–	COc1ccc(CCNc2nnc(Sc3ncc([N+](=O)[O-])s3)s2)cc1OC [BI-90H10, N-(3,4-dimethoxyphenethyl)-5-(5-nitrothiazol-2-ylthio)-1,3,4-thiadiazol-2-amine]
–	–	42%	30%	–	O=[N+]([O-])c1cnc(Sc2nnc(O)n2-c2ccc3c(c2)OCCO3)s1 [BI-78D3, reference compound]
> 100 µM	degraded rapidly	35%	49.8%	–	CCCNc1nnc(Sc2ncc([N+](=O)[O-])s2)s1 [BI-90H6, 5-(5-nitrothiazol-2-ylthio)-N-propyl-1,3,4-thiadiazol-2-amine]
> 100 µM	–	–	–	–	CCC(C)Nc1nnc(Sc2ncc([N+](=O)[O-])s2)s1 (stereo not drawn) [BI-98A10, N-sec-butyl-5-(5-nitrothiazol-2-ylthio)-1,3,4-thiadiazol-2-amine]
> 100 µM	–	68%	76.3%	practically inactive	COCCNc1nnc(Sc2ncc([N+](=O)[O-])s2)s1 [BI-90H9, N-(2-methoxyethyl)-5-(5-nitrothiazol-2-ylthio)-1,3,4-thiadiazol-2-amine]
